For this assay, the target named is T1, human Bradykinin B1 receptor (Homo sapiens, UniProt P46663).
T1 construct: host or cells: CHO-K1
T1 sequence (P46663 1-353): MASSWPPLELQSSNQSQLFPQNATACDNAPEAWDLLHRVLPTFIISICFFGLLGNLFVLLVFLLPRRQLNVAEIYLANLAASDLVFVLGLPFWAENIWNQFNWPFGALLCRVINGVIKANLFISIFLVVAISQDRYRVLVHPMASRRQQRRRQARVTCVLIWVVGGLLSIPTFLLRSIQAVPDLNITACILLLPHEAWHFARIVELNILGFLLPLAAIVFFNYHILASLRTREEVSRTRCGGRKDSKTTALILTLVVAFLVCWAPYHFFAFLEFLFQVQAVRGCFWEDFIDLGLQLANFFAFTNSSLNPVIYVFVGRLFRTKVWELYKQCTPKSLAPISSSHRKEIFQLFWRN
Put plainly: Calcium flux Assay (FLIPR) with recombinant CHO-K1 cells expressing human Bradykinin B1 receptor, in presence (hB1 IC50) or absence (hB1 free IC50) of 0.1% BSA. The assay is classed as cell-based. (In general: A change in cytosolic calcium serves as a functional read-out for many receptors and channels.)

The mark [1] stands for this setting: in absence of 0.1% BSA, read-out: hB1 free IC50.
[2] abbreviates: in presence of 0.1% BSA, read-out: hB1 IC50.

Read-outs that look alike come from different tables or passages of the source.

`CCOc1ccc(-c2ccc(NC(=O)C3(c4ccccc4Cl)CC3)cc2-c2nnn[nH]2)cn1` [Example 93, 1-(2-chlorophenyl)-N-[4-(6-ethoxypyridin-3-yl)-3-(1H-tetrazol-5-yl)phenyl] cyclopropane-carboxamide]: the IC50 by setting is: under setting [1], 39.3 nM; under setting [2], 37.1 nM.
For `O=C(Nc1ccc(-n2cc(C(F)F)cn2)c(-c2nnn[nH]2)c1)C1(c2ccc(F)c(F)c2)CC1` [Example 353, N-{4-[4-(Difluoromethyl)-1H-pyrazol-1-yl]-3-(1H-tetrazol-5-yl)phenyl}-1-(3,4-difluorophenyl)cy-clopropanecar-boxamide], the half-inhibitory concentration (IC50) under setting [1] amounted to 1210 nM.
As to `O=C(Nc1ccc(-c2ccc(Cl)nc2)c(-c2nnn[nH]2)c1)C1(c2cccc(Cl)c2)CC1` [Example 341, 1-(3-chlorophenyl)-N-[4-(6-chloropyridin-3-yl)-3-(1H-tetrazol-5-yl)phenyl]cyclopro-panecarboxa-mide], the IC50 runs as follows: under setting [1], 87.3 nM; under setting [2], 115 nM.
For the molecule `O=C(Nc1ccc(-c2cc3ccccc3s2)c(-c2nnn[nH]2)c1)C1(c2cccc(Cl)c2)CC1` [Example 383, N-[4-(1-benzothiophen-2-yl)-3-(1H-tetrazol-5-yl)phenyl]-1-(3-chlorophenyl)cyclo-propanecarbox-amide], under setting [1], the IC50 was 142 nM.
`CCOc1ccc(-c2ccc(NC(=O)C3(c4cc(F)ccc4C)CC3)cc2-c2nnn[nH]2)cn1` [Example 254, N-[4-(6-ethoxypyridin-3-yl)-3-(1H-tetrazol-5-yl)phenyl]-1-(5-fluoro-2-methylphenyl)cy-clopropanecar-boxamide]: the 50% inhibitory concentration (IC50) stood at 309 nM under setting [1] and 245 nM under setting [2].
Consider `Cc1nc(C(F)(F)F)cn1-c1ccc(NC(=O)C2(c3ccc(OC(F)(F)F)cc3F)CC2)cc1-c1nnn[nH]1` [Example 365, 1-[2-Fluoro-4-(trifluoromethoxy)phenyl]-N-{4-[2-methyl-4-(trifluoromethyl)-1H-imidazol-1-yl]-3-(1H-tetrazol-5-yl)phenyl}cyclopro-panecarboxa-mide], for which the IC50 under setting [1] was 535 nM.
With `CC(F)(F)c1ccc(-c2ccc(NC(=O)C3(c4ccc(OC(F)(F)F)cc4F)CC3)cc2-c2nnn[nH]2)cn1` [Example 282, N-{4-[6-(1,1-difluoroethyl)py-ridin-3-yl]-3-(1H-tetrazol-5-yl)phenyl}-1-[2-fluoro-4-(trifluoromethoxy)phenyl]cyclo-propanecarboxa-mide], under setting [1], the IC50 was 3.49 nM.
Turning to “1-(3- chlorophenyl)- N-[3-(1H- tetrazol-5-yl)- 6′- (trifluoromethyl)- 2,3′-bipyridin- 5- yl]cyclopropane carboxamide [Example 217]”, the IC50 under setting [1] was 516 nM.
The same measure, in the same setting: next, `O=C(Nc1ccc(-n2cnc(C3CCC3)n2)c(-c2nnn[nH]2)c1)C1(c2cccc(Cl)c2)CC1` [Example 357, 1-(3-chlorophenyl)-N-[4-(3-cyclobutyl-1H-1,2,4-triazol-1-yl)-3-(1H-tetrazol-5-yl)phenyl]cyclopro-panecarboxa-mide]: 44.8 nM.
`CCC1CCN(c2ccc(NC(=O)C3(c4ccc(F)c(F)c4)CC3)cc2-c2nnn[nH]2)C1=O` (stereo not drawn) [Example 406, 1-(3,4-difluorophenyl)-N-[4-(3-ethyl-2-oxopyrrolidin-1-yl)-3-(1H-tetrazol-5-yl)phenyl]cyclopro-panecarboxa-mide]: the IC50 under setting [1] was found to be 2160 nM.
In the case of `CCOc1ccc(-c2ccc(NC(=O)C3(c4ccccc4)CC3)cc2-c2nnn[nH]2)cn1` [Example 306, N-[4-(6-ethoxypyridin-3-yl)-3-(1H-tetrazol-5-yl)phenyl]-1-phenylcyclopropane-carboxamide], the IC50 is, setting by setting: under setting [1], 45.7 nM; under setting [2], 133 nM.
For the molecule `O=C(Nc1ccc(-c2ccnc(C(F)(F)F)c2)c(-c2nnn[nH]2)c1)C1(c2cccc(Cl)c2F)CC1` [Example 172, 1-(3-chloro-2-fluorophenyl)-N-{3-(1H-tetrazol-5-yl)-4-[2-(trifluoromethyl)pyridin-4-yl]phenyl} cyclopropane-carboxamide], the IC50 is, setting by setting: under setting [1], 433 nM; under setting [2], 347 nM.
With `O=C(Nc1ccc(-c2ccc(C(F)F)nc2)c(-c2nnn[nH]2)c1)C1(c2ccc(Cl)cc2F)CC1` [Example 274, 1-(4-chloro-2-fluorophenyl)-N-{4-[6-(difluoromethyl)pyridin-3-yl]-3-(1H-tetrazol-5-yl)phenyl}cyclopro-panecarboxa-mide], under setting [1], the IC50 is 6.35 nM.
On to `O=C(Nc1ccc(-c2ccc(C(F)F)nc2)c(-c2nnn[nH]2)c1)C1(c2ccc(F)cc2F)CC1` [Example 273, N-{4-[6-(difluoromethyl)pyridin-3-yl]-3-(1H-tetrazol-5-yl)phenyl}-1-(2,4-difluorophenyl)cy-clopropanecar-boxamide], for which the IC50 under setting [1] worked out at 24.9 nM.
For `COc1ccc(-c2ccc(NC(=O)C3(c4ccc(F)cc4F)CC3)cc2-c2nnn[nH]2)cc1OC` [Example 2, 1-(2,4-difluorophenyl)-N-[3′,4′-dimethoxy-2-(1H-tetrazol-5-yl)biphenyl-4-yl]cyclopropane carboxamide], the IC50 under setting [2] stood at 58.9 nM.
Regarding `Cc1cc(-c2ccc(NC(=O)C3(c4cccc(Cl)c4)CC3)cc2-c2nnn[nH]2)ccn1` [Example 210, 1-(3-chlorophenyl)-N-[4-(2-methylpyridin-4-yl)-3-(1H-tetrazol-5-yl)phenyl] cyclopropane-carboxamide], the IC50 under setting [1] came to 131 nM and the IC50 under setting [2] amounted to 78 nM.
With `O=C(Nc1ccc(-c2cc3ccccc3s2)c(-c2nnn[nH]2)c1)C1(c2ccc(F)c(F)c2)CC1` [Example 385, N-[4-(1-benzothiophen-2-yl)-3-(1H-tetrazol-5-yl)phenyl]-1-(3,4-difluorophenyl)cyclo-propanecar-boxamide], under setting [1], the concentration for half-maximal inhibition (IC50) is 54.7 nM.
As for `Cc1nc(C(F)(F)F)nn1-c1ccc(NC(=O)C2(c3cccc(Cl)c3)CC2)cc1-c1nnn[nH]1` [Example 359, 1-(3-chlorophenyl)-N-{4-[5-methyl-3-(trifluoromethyl)-1H-1,2,4-triazol-1-yl]-3-(1H-tetrazol-5-yl)phenyl}cyclopro-panecarboxa-mide], the IC50 under setting [1] was 676 nM.
For `CCOc1ccc(-c2ccc(NC(=O)C3(c4ccc(C)c(F)c4)CC3)cc2-c2nnn[nH]2)cn1` [Example 76, N-[4-(6-ethoxypyridin-3-yl)-3-(1H-tetrazol-5-yl)phenyl]-1-(3-fluoro-4-methylphenyl) cyclopropane-carboxamide], the IC50 is, setting by setting: under setting [1], 12 nM; under setting [2], 24 nM.
In the case of `Cc1ccc(C2(C(=O)Nc3ccc(-n4cc(C(F)(F)F)nc4C)c(-c4nnn[nH]4)c3)CC2)c(F)c1` [Example 369, 1-(2-Fluoro-4-methylphenyl)-N-{4-[2-methyl-4-(trifluoromethyl)-1H-imidazol-1-yl]-3-(1H-tetrazol-5-yl)phenyl}cyclopro-panecarboxa-mide], under setting [1], the half-maximal inhibitory concentration (IC50) stood at 1130 nM.
As for `CS(=O)(=O)Nc1ccc(-c2ccc(NC(=O)C3(c4cccc(Cl)c4)CC3)cc2-c2nnn[nH]2)cc1` [Example 331, 1-(3-chloropehnyl)-N-{4′-[(methylsulfonyl)amino]-2-(1H-tetrazol-5-yl)biphenyl-4-yl}cyclopropane carboxamide], the IC50 is, setting by setting: under setting [1], 162 nM; under setting [2], 206 nM.
For `CC(C)c1cnn(-c2ccc(NC(=O)C3(c4ccc(OC(F)(F)F)cc4F)CC3)cc2-c2nnn[nH]2)c1` [Example 413, 1-[2-fluoro-4-(trifluoromethoxy)phenyl]-N-[4-(4-isopropyl-1H-pyrazol-1-yl)-3-(1H-tetrazol-5-yl)phenyl]cyclopro-panecarboxa-mide], the IC50 under setting [1] was 5.84 nM.
`O=C(Nc1ccc(-n2cnc(C(F)(F)F)c2)c(-c2nnn[nH]2)c1)C1(c2ccc(OC(F)(F)F)cc2F)CC1` [Example 362, 1-[2-Fluoro-4-(trifluoromethoxy)phenyl]-N-{3-(1H-tetrazol-5-yl)-4-[4-(trifluoromethyl)-1H-imidazol-1-yl]phenyl}cyclopro-panecarboxa-mide]: the half-inhibitory concentration (IC50) under setting [1] amounted to 26.4 nM.
Take `COc1ccc(-c2ccc(NC(=O)C3(c4cccc(C(C)(C)C)c4)CC3)cc2-c2nnn[nH]2)cc1OC` [Example 42, 1-(3-tert-butylphenyl)-N-[3′,4′-dimethoxy-2-(1H-tetrazol-5-yl)biphenyl-4-yl]cyclopropane carboxamide]: the IC50 under setting [2] is 746 nM.
`Cc1cc(-c2c(F)cc(NC(=O)C3(c4cccc(Cl)c4)CC3)cc2-c2nnn[nH]2)ccn1` [Example 246, 1-(3-chlorophenyl)-N-[3-fluoro-4-(2-methylpyridin-4-yl)-5-(1H-tetrazol-5-yl)phenyl] cyclopropane carboxamide]: under setting [1], the IC50 came to 16 nM.
As for `Cc1ccc(C2(C(=O)Nc3ccc(-n4ccc(C(C)(C)C)n4)c(-c4nnn[nH]4)c3)CC2)c(F)c1` [Example 379, N-[4-(3-tert-Butyl-1H-pyrazol-1-yl)-3-(1H-tetrazol-5-yl)phenyl]-1-(2-fluoro-4-methylphenyl)cy-clopropanecar-boxamide], the IC50 under setting [1] amounted to 257 nM.
In the case of `O=C(Nc1ccc(-c2ccc(C(F)(F)F)nc2)c(-c2nnn[nH]2)c1)C1(c2ccc(F)cn2)CC1` [Example 145, 1-(5-fluoropyridin-2-yl)-N-{3-(1H-tetrazol-5-yl)-4-[6-(trifluoromethyl)pyridin-3-yl]phenyl} cyclopropane-carboxamide], under setting [1], the IC50 is 194 nM.
As to `COc1ccc(-c2ccc(NC(=O)C3(c4ccc(C)cc4)CC3)cc2-c2nnn[nH]2)cc1OC` [Example 45, N-[3′,4′-dimethoxy-2-(1H-tetrazol-5-yl)biphenyl-4-yl]-1-(4-methylphenyl) cyclopropane-carboxamide], the IC50 under setting [2] worked out at 49.8 nM.

As a reminder, the IC50 is the midpoint of a concentration-inhibition curve.

These data come from patent US20210317092A1 (BAYER PHARMA AKTIENGESELLSCHAFT, priority 2016, published 2021).
